Experimental data: PubChem BioAssay (NCI)
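Test compounds were applied to cells in 96-well plates for 48 hours at 5 doses. Abbreviation: GI50, concentration required for 50% inhibition of growth. TGI: concentration producing complete growth inhibition.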

Legend:
Experiment in all cases: inhibition of tumour cell growth, NCI panel, 48 h; in the data active = GI50 below about 0.43 µM; inactive = the rest
SF-268 CNS = system: SF-268 CNS
UACC-257 melanoma = system: UACC-257 melanoma
SF-539 CNS = system: SF-539 CNS
HOP-62 NSCLC = system: HOP-62 NSCLC
K-562 leukemia = system: K-562 leukemia
SNB-75 CNS = system: SNB-75 CNS
KM12 colon = system: KM12 colon
NCI-H460 lung = system: NCI-H460 lung
UO-31 renal = system: UO-31 renal
HCT-15 colon = system: HCT-15 colon
MCF7 breast = system: MCF7 breast
SW-620 colon = system: SW-620 colon
HT29 colon = system: HT29 colon
COLO 205 colon = system: COLO 205 colon
NCI/ADR-RES ovarian = system: NCI/ADR-RES ovarian
MDA-N = system: MDA-N
DU-145 prostate = system: DU-145 prostate
UACC-62 melanoma = system: UACC-62 melanoma
M14 melanoma = system: M14 melanoma
RXF 393 renal = system: RXF 393 renal
A498 renal = system: A498 renal
RPMI-8226 leukemia = system: RPMI-8226 leukemia
HOP-92 NSCLC = system: HOP-92 NSCLC
SN12C renal = system: SN12C renal
T-47D breast = system: T-47D breast
ACHN renal = system: ACHN renal
MOLT-4 leukemia = system: MOLT-4 leukemia
LOX IMVI melanoma = system: LOX IMVI melanoma
NCI-H522 lung = system: NCI-H522 lung
TK-10 renal = system: TK-10 renal
CAKI-1 renal = system: CAKI-1 renal
NCI-H23 lung = system: NCI-H23 lung
CCRF-CEM leukemia = system: CCRF-CEM leukemia
786-0 renal = system: 786-0 renal
HCC-2998 colon = system: HCC-2998 colon
HCT-116 colon = system: HCT-116 colon
HS 578T breast = system: HS 578T breast
SK-OV-3 ovarian = system: SK-OV-3 ovarian
OVCAR-4 ovarian = system: OVCAR-4 ovarian
OVCAR-5 ovarian = system: OVCAR-5 ovarian
MDA-MB-435 = system: MDA-MB-435
EKVX NSCLC = system: EKVX NSCLC
SF-295 CNS = system: SF-295 CNS
HL-60(TB) leukemia = system: HL-60(TB) leukemia
IGROV1 ovarian = system: IGROV1 ovarian
SK-MEL-5 melanoma = system: SK-MEL-5 melanoma
OVCAR-8 ovarian = system: OVCAR-8 ovarian
NCI-H226 lung = system: NCI-H226 lung
OVCAR-3 ovarian = system: OVCAR-3 ovarian
MDA-MB-231 breast = system: MDA-MB-231 breast
BT-549 breast = system: BT-549 breast
SK-MEL-28 melanoma = system: SK-MEL-28 melanoma
SNB-19 CNS = system: SNB-19 CNS
A549 NSCLC = system: A549 NSCLC
SK-MEL-2 melanoma = system: SK-MEL-2 melanoma
U251 CNS = system: U251 CNS
SR leukemia = system: SR leukemia
PC-3 prostate = system: PC-3 prostate
MALME-3M melanoma = system: MALME-3M melanoma

O=C1C2CCCC2N1Cc1ccccc1 (configuration not stated)
26.9 µM: TGI (M14 melanoma)
28.5 µM: TGI (UO-31 renal)
> 100 µM: TGI (SF-268 CNS) | TGI (UACC-257 melanoma) | TGI (SF-539 CNS) | TGI (HOP-62 NSCLC) | TGI (K-562 leukemia) | TGI (SNB-75 CNS) | TGI (KM12 colon) | TGI (NCI-H460 lung) | TGI (HCT-15 colon) | TGI (MCF7 breast) | TGI (SW-620 colon) | TGI (HT29 colon) | TGI (COLO 205 colon) | TGI (NCI/ADR-RES ovarian) | TGI (MDA-N) | TGI (DU-145 prostate) | TGI (UACC-62 melanoma) | TGI (RXF 393 renal) | TGI (A498 renal) | TGI (RPMI-8226 leukemia) | TGI (HOP-92 NSCLC) | TGI (SN12C renal) | TGI (T-47D breast) | TGI (ACHN renal) | TGI (MOLT-4 leukemia) | TGI (LOX IMVI melanoma) | TGI (NCI-H522 lung) | TGI (TK-10 renal) | TGI (CAKI-1 renal) | TGI (NCI-H23 lung) | TGI (CCRF-CEM leukemia) | TGI (786-0 renal) | TGI (HCC-2998 colon) | TGI (HCT-116 colon) | TGI (HS 578T breast) | TGI (SK-OV-3 ovarian) | TGI (OVCAR-4 ovarian) | TGI (OVCAR-5 ovarian) | TGI (MDA-MB-435) | TGI (EKVX NSCLC) | TGI (SF-295 CNS) | TGI (HL-60(TB) leukemia) | TGI (IGROV1 ovarian) | TGI (SK-MEL-5 melanoma) | TGI (OVCAR-8 ovarian) | TGI (NCI-H226 lung) | TGI (OVCAR-3 ovarian)

COc1cc(/C=C2\C[C@H]3[C@@H]4CC=C5C[C@@H](O)CC[C@]5(C)[C@H]4CC[C@]3(C)[C@H]2O)ccc1OCCN1CCCCC1
1.32 µM: TGI (K-562 leukemia)
3.62 µM: TGI (NCI-H460 lung)
5.02 µM: TGI (UACC-257 melanoma)
2.1 µM: TGI (SF-539 CNS)
1.47 µM: TGI (HOP-92 NSCLC)
3.45 µM: TGI (UACC-62 melanoma)
4.58 µM: TGI (DU-145 prostate)
7.01 µM: TGI (PC-3 prostate)
1.68 µM: TGI (HOP-62 NSCLC)
> 10.7 µM: TGI (HS 578T breast)
0.954 µM: TGI (M14 melanoma)
1.03 µM: TGI (HCT-15 colon)
1.39 µM: TGI (MDA-MB-231 breast)
3.36 µM: TGI (CAKI-1 renal)
3.64 µM: TGI (TK-10 renal)
1.75 µM: TGI (SN12C renal) | TGI (SF-295 CNS)
> 12.1 µM: TGI (OVCAR-8 ovarian)
2.23 µM: TGI (A549 NSCLC)
1.88 µM: TGI (CCRF-CEM leukemia)
1.37 µM: TGI (ACHN renal)
1.18 µM: TGI (786-0 renal)
1.19 µM: TGI (SK-MEL-5 melanoma)
> 26.3 µM: TGI (IGROV1 ovarian)
inactive: GI50 (SF-268 CNS) 1.74 µM | GI50 (UACC-257 melanoma) 1.61 µM | GI50 (MDA-MB-231 breast) 0.605 µM | GI50 (SF-539 CNS) 1.1 µM | GI50 (HOP-62 NSCLC) 0.799 µM | GI50 (K-562 leukemia) 0.491 µM | GI50 (KM12 colon) 0.912 µM | GI50 (NCI-H460 lung) 1.21 µM | GI50 (UO-31 renal) 1.18 µM | GI50 (HCT-15 colon) 0.465 µM | GI50 (BT-549 breast) 1.18 µM | GI50 (MCF7 breast) 1.31 µM | GI50 (SW-620 colon) 0.76 µM | GI50 (HT29 colon) 1.54 µM | GI50 (NCI/ADR-RES ovarian) 1.46 µM | GI50 (DU-145 prostate) 1.61 µM | GI50 (UACC-62 melanoma) 1.73 µM | GI50 (RXF 393 renal) 1.04 µM | GI50 (SK-MEL-28 melanoma) 1.06 µM | GI50 (A498 renal) 14.3 µM | GI50 (RPMI-8226 leukemia) 0.776 µM | GI50 (HOP-92 NSCLC) 0.688 µM | GI50 (SNB-19 CNS) 2.17 µM | GI50 (SN12C renal) 0.813 µM | GI50 (T-47D breast) 2.05 µM | GI50 (ACHN renal) 0.706 µM | GI50 (MOLT-4 leukemia) 3.07 µM | GI50 (A549 NSCLC) 0.815 µM | GI50 (LOX IMVI melanoma) 0.589 µM | GI50 (NCI-H522 lung) 1.6 µM | GI50 (SK-MEL-2 melanoma) 5 µM | GI50 (TK-10 renal) 1.61 µM | GI50 (CAKI-1 renal) 1.74 µM | GI50 (NCI-H23 lung) 1.21 µM | GI50 (786-0 renal) 0.47 µM | GI50 (HCC-2998 colon) 0.85 µM | GI50 (U251 CNS) 1.13 µM | GI50 (HS 578T breast) 1.44 µM | GI50 (OVCAR-5 ovarian) 1.03 µM | GI50 (MDA-MB-435) 0.945 µM | GI50 (EKVX NSCLC) 1.67 µM | GI50 (SF-295 CNS) 0.906 µM | GI50 (HL-60(TB) leukemia) 1.33 µM | GI50 (SR leukemia) 1.11 µM | GI50 (IGROV1 ovarian) 2.35 µM | GI50 (PC-3 prostate) 1.03 µM | GI50 (SK-MEL-5 melanoma) 0.576 µM | GI50 (OVCAR-8 ovarian) 1.57 µM | GI50 (NCI-H226 lung) 2.53 µM | GI50 (OVCAR-3 ovarian) 0.772 µM
2.31 µM: TGI (RXF 393 renal)
2.6 µM: TGI (OVCAR-5 ovarian)
1.64 µM: TGI (HCC-2998 colon)
1.34 µM: TGI (LOX IMVI melanoma)
16.2 µM: TGI (T-47D breast)
3.18 µM: TGI (HL-60(TB) leukemia)
> 50 µM: TGI (HT29 colon) | TGI (SK-MEL-28 melanoma) | TGI (SNB-19 CNS) | TGI (MOLT-4 leukemia) | TGI (NCI-H522 lung) | TGI (SK-MEL-2 melanoma) | TGI (SR leukemia)
0.494 µM: TGI (HCT-116 colon)
31.3 µM: TGI (A498 renal)
5.62 µM: TGI (NCI-H226 lung)
1.53 µM: TGI (OVCAR-3 ovarian)
3.32 µM: TGI (U251 CNS)
1.98 µM: TGI (RPMI-8226 leukemia)
1.8 µM: TGI (MDA-MB-435)
12.5 µM: TGI (SF-268 CNS)
3.21 µM: TGI (NCI-H23 lung)
9.62 µM: TGI (EKVX NSCLC)
20.5 µM: TGI (MCF7 breast)
4.66 µM: TGI (NCI/ADR-RES ovarian)
2.12 µM: TGI (KM12 colon)
2.49 µM: TGI (BT-549 breast)
active: GI50 (M14 melanoma) 0.424 µM | GI50 (CCRF-CEM leukemia) 0.37 µM | GI50 (HCT-116 colon) 0.254 µM

CSc1c(C(N)=S)c(N)nn1-c1ccccc1
> 100 µM: TGI (SF-268 CNS) | TGI (UACC-257 melanoma) | TGI (MDA-MB-231 breast) | TGI (SF-539 CNS) | TGI (K-562 leukemia) | TGI (SNB-75 CNS) | TGI (KM12 colon) | TGI (NCI-H460 lung) | TGI (UO-31 renal) | TGI (HCT-15 colon) | TGI (BT-549 breast) | TGI (MCF7 breast) | TGI (SW-620 colon) | TGI (HT29 colon) | TGI (COLO 205 colon) | TGI (NCI/ADR-RES ovarian) | TGI (DU-145 prostate) | TGI (UACC-62 melanoma) | TGI (M14 melanoma) | TGI (RXF 393 renal) | TGI (SK-MEL-28 melanoma) | TGI (A498 renal) | TGI (RPMI-8226 leukemia) | TGI (HOP-92 NSCLC) | TGI (SNB-19 CNS) | TGI (SN12C renal) | TGI (T-47D breast) | TGI (MOLT-4 leukemia) | TGI (A549 NSCLC) | TGI (LOX IMVI melanoma) | TGI (NCI-H522 lung) | TGI (SK-MEL-2 melanoma) | TGI (TK-10 renal) | TGI (CAKI-1 renal) | TGI (MALME-3M melanoma) | TGI (NCI-H23 lung) | TGI (786-0 renal) | TGI (HCC-2998 colon) | TGI (HCT-116 colon) | TGI (U251 CNS) | TGI (HS 578T breast) | TGI (SK-OV-3 ovarian) | TGI (OVCAR-4 ovarian) | TGI (OVCAR-5 ovarian) | TGI (MDA-MB-435) | TGI (EKVX NSCLC) | TGI (HL-60(TB) leukemia) | TGI (SR leukemia) | TGI (IGROV1 ovarian) | TGI (PC-3 prostate) | TGI (SK-MEL-5 melanoma) | TGI (OVCAR-8 ovarian) | TGI (NCI-H226 lung) | TGI (OVCAR-3 ovarian)
